# pEC50: −log10 of the molar value. Structures can show the parent of a compound that is named as a salt.
# Experiments:
# Type in all cases: cell-based
# pig TRPM8 [1] = target: T1, pig TRPM8 (Sus scrofa, UniProt F1SM15); experiment: In vitro pig TRPM8 automated patch-clamp assay (SyncroPatch 384PE, CHO cells); conditions: CHO cells expressing pig TRPM8, 28° C.
# T1 construct: expressed in transfected cells; host or cells: CHO (pcDNA5/FRT/TO vector; hygromycin B and blasticidin selection)
# Experimental: (§1) In Vitro Pig and Human TRPM8 Automated Patch-Clamp Assays
# (§2) Automated whole-cell recordings of compound effects were performed on the SyncroPatch 384PE (Nanion Technologies, Munich, Germany) incorporated into a Biomek FX pipetting robot (Beckman Coulter, Jersey City, NJ, USA) using the same engineered CHO cell lines expressing human or pig TRPM8 channels. Data acquisition and analysis were performed with the proprietary software PatchControl 384 and DataControl 384, respectively (Nanion Technologies, Munich, Germany). All recordings were carried out using planar borosilicate glass patch clamp chips in a 384-microtiter plate format with patch hole resistances of 2-4 MO. For recordings, standard intracellular solution was used containing (in mM): 130 KF, 4 NaCl, 1 MgCl2, 0.5 CaCl2, 10 HEPES and 10 EGTA/KOH (pH 7.2) and standard extracellular solution contained in mM: 150 NaCl, 4 KCl, 0.5 CaCl2, 1 MgCl2 and 10 HEPES (pH 7.3).
# (§3) Prior to the electrophysiological measurements, cells were harvested using Accutase (GIBCO, Fisher Scientific) and resuspended in warmed extracellular solution. The cell suspension was kept in the dedicated cell reservoir at 28° C. at a 1 million/ml cell density and shaken at 500 rounds per min (rpm). Experiments were performed at 28° C. throughout. Cells were distributed in high resistance 4-holes-per-well Nanion chips where they were caught on the patch holes by application of a −80 mbar pressure. The cell membrane was ruptured to obtain the whole-cell configuration with a pressure pulse of −250 mbar for 2 seconds. Voltage protocols were constructed using PatchControl 384. The cells were held at a holding potential of −60 mV and TRPM8 currents were recorded using a ramp protocol from −80 to +80 mV every 5 seconds before and after compound addition. Resulting currents were recorded at both −80 and +80 mV and current kinetics were exported and analyzed. From each plate, control wells with 200 μM menthol were recorded to validate the assay. One concentration of compound was applied to each of the other wells. For each concentration, compound response was determined by subtracting the baseline current recorded before compound addition from the maximum peak elicited currents obtained after compound addition. Then, each compound response was normalized to control condition without compound and maximum current (Emax) obtained for each compound. Nanion DataControl 384 software plotted current response for each compound concentration and was able to calculate an EC50 value for each active compound.
# human TRPM8 [2] = target: T2, human TRPM8 (Homo sapiens, UniProt Q7Z2W7); experiment: In vitro human TRPM8 fluorescence calcium flux assay (recombinant CHO cells, Fluo4-AM, FDSS6000); conditions: recombinant CHO cells expressing human TRPM8; menthol-related EC50, normalized to 100 μM menthol
# T2 construct: expressed in transfected cells; host or cells: CHO (p658 mammalian expression vector)
# Summary of the method: (§4)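 CHO cells stably expressing pig or human TRPM8, loaded with 2 μM Fluo4-AM in HBSS/20 mM HEPES/0.1% BSA/2.5 mM probenecid for 1 h at RT. Intracellular calcium read kinetically for 3 min after compound addition. EC50 from sixteen-point curves, normalized to 100 μM menthol maximal response.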
# pig TRPM8 [3] = target: T1, pig TRPM8; experiment: In vitro pig TRPM8 fluorescence calcium flux assay (recombinant CHO cells, Fluo4-AM, FDSS6000); conditions: recombinant CHO cells expressing pig TRPM8; menthol-related EC50, normalized to 100 μM menthol
# Summary of the method: as §4
# human TRPM8 [4] = target: T2, human TRPM8; experiment: In vitro human TRPM8 automated patch-clamp assay (SyncroPatch 384PE, CHO cells); conditions: CHO cells expressing human TRPM8, 28° C.
# Experimental: as §1, §2, §3
# T1 sequence (F1SM15 1-1104): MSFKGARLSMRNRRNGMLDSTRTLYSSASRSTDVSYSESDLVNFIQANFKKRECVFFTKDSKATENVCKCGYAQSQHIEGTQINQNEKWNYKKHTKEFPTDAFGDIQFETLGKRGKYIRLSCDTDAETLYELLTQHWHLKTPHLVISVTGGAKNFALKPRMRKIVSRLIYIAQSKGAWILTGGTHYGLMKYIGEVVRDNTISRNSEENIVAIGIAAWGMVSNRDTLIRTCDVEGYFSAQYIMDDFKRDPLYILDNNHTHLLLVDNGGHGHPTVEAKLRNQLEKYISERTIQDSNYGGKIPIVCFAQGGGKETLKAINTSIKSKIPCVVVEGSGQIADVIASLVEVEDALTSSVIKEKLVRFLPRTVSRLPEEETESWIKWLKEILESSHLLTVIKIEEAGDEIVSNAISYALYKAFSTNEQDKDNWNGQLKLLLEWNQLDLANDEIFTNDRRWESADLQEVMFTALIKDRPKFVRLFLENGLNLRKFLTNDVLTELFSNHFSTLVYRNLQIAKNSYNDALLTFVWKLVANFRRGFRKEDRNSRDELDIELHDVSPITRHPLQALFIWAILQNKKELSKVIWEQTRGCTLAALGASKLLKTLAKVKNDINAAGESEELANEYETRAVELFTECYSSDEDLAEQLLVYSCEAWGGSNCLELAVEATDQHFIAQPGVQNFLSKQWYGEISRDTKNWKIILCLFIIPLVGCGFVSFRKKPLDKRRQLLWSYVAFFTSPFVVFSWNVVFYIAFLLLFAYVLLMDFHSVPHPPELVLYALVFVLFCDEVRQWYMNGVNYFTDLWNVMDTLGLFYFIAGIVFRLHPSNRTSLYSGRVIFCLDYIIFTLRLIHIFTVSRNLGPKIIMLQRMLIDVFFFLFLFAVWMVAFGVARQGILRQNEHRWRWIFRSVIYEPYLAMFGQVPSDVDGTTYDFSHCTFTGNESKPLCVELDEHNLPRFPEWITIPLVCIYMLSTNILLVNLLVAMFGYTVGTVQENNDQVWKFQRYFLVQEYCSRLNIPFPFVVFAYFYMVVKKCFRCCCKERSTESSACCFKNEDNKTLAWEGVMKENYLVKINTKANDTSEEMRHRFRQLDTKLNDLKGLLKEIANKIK
# T2 sequence (Q7Z2W7 whole entry): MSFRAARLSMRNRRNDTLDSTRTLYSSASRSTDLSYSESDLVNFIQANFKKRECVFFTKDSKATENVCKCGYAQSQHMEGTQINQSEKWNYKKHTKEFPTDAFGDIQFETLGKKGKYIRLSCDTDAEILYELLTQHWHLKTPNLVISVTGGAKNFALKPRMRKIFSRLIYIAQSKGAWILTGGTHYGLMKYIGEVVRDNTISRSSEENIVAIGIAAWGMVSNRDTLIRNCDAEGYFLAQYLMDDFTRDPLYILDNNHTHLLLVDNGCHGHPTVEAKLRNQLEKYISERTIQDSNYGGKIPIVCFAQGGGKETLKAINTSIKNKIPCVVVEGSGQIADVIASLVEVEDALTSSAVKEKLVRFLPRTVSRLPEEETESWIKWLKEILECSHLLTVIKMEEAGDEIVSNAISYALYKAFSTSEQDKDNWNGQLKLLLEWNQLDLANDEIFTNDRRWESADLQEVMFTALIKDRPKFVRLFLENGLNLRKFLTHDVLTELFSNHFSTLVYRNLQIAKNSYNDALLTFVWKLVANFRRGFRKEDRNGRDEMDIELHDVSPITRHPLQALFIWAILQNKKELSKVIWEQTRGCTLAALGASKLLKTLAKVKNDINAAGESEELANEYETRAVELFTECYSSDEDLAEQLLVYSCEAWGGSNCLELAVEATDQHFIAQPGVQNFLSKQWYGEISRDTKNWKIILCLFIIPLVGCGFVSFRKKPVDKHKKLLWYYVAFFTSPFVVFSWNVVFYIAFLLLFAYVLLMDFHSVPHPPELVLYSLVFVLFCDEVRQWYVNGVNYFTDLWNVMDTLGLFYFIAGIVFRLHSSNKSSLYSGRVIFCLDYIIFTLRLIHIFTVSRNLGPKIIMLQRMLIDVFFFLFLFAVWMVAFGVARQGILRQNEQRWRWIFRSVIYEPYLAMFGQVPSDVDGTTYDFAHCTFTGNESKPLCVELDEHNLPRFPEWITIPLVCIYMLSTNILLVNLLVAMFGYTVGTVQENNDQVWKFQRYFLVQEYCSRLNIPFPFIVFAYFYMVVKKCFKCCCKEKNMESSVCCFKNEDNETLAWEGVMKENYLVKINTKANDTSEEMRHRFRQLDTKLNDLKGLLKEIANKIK
Structure (SMILES),pEC50 (pig TRPM8 [1]),pEC50 (human TRPM8 [2]),pEC50 (pig TRPM8 [3]),pEC50 (human TRPM8 [4])
"CC(C)[C@@H]1CC[C@@H](C)C[C@@]1(O)C(=O)NCCc1cccnc1 [Example 124, (1S,2S,5R)-1-hydroxy-2-isopropyl-5-methyl-N-[2-(3-pyridyl)ethyl]cyclohexanecarboxamide]",5.17,7.44,7.93,5.19
"COC(=O)Cc1cccc(CCNC(=O)[C@]2(O)C[C@H](C)CC[C@H]2C(C)C)c1 [Example 74, methyl 2-(3-(2-((1S,2S,5R)-1-hydroxy-2-isopropyl-5-methylcyclohexane-1-carboxamido)ethyl)phenyl)acetate]",5.29,7.39,8.05,5.54
"CC(C)[C@@H]1CC[C@@H](C)C[C@@]1(O)C(=O)NCC(C(=O)OCCN)c1ccccc1 (stereo partly drawn) [Example 71, 2-aminoethyl 3-((1S,2S,5R)-1-hydroxy-2-isopropyl-5-methylcyclohexane-1-carboxamido)-2-phenylpropanoate hydrochloride]",6.06,9.00,8.70,6.74
"CC(C)[C@@H]1CC[C@@H](C)C[C@@]1(O)C(=O)NCC(=O)c1ccc(F)c(F)c1 [Example 136, (1S,2S,5R)-N-[2-(3,4-difluorophenyl)-2-oxo-ethyl]-1-hydroxy-2-isopropyl-5-methyl-cyclohexanecarboxamide]",6.29,8.57,8.89,6.21
"CC(C)[C@@H]1CC[C@@H](C)C[C@@]1(O)C(=O)NC[C@@H](OCCO)c1ccccc1 [Example 56, (1S,2S,5R)-1-hydroxy-N—((S)-2-(2-hydroxyethoxy)-2-phenylethyl)-2-isopropyl-5-methylcyclohexane-1-carboxamide]",5.21,7.71,7.95,< 5.00
"CC(C)[C@@H]1CC[C@@H](C)C[C@@]1(O)C(=O)NCC(=O)c1ccccc1F [Example 85, (1S,2S,5R)—N-(2-(2-fluorophenyl)-2-oxoethyl)-1-hydroxy-2-isopropyl-5-methylcyclohexane-1-carboxamide]",6.01,8.48,8.62,6.15
"COC(=O)COc1cccc(C(O)CNC(=O)[C@]2(O)C[C@H](C)CC[C@H]2C(C)C)c1 (stereo partly drawn) [Example 33, methyl 2-(3-(1-hydroxy-2-((1S,2S,5R)-1-hydroxy-2-isopropyl-5-methylcyclohexane-1-carboxamido)ethyl)phenoxy)acetate]",5.37,7.19,7.42,5.38
"CC(C)[C@@H]1CC[C@@H](C)C[C@@]1(O)C(=O)NCCc1ccccc1OCC(O)CO (stereo partly drawn) [Example 9, (1S,2S,5R)—N-(2-(2,3-dihydroxypropoxy)phenethyl)-1-hydroxy-2-isopropyl-5-methylcyclohexane-1-carboxamide]",5.39,8.06,8.20,5.62
"CC(C)[C@@H]1CC[C@@H](C)C[C@@]1(O)C(=O)NCC(=O)c1cccc(O)c1 [Example 39, (1S,2S,5R)-1-hydroxy-N-(2-(3-hydroxyphenyl)-2-oxoethyl)-2-isopropyl-5-methylcyclohexane-1-carboxamide]",6.37,8.92,9.05,6.34
"COc1ccccc1C(F)(F)CNC(=O)[C@]1(O)C[C@H](C)CC[C@H]1C(C)C [Example 186, (1S,2S,5R)—N-[2,2-difluoro-2-(2-methoxyphenyl)ethyl]-1-hydroxy-2-isopropyl-5-methyl-cyclohexanecarboxamide]",5.68,7.36,7.58,6.00
"CC(C)[C@@H]1CC[C@@H](C)C[C@@]1(O)C(=O)NCC1COc2ccccc21 (stereo partly drawn) [Example 162, (1S,2S,5R)-N-(2,3-dihydrobenzofuran-3-ylmethyl)-1-hydroxy-2-isopropyl-5-methyl-cyclohexanecarboxamide]",5.85,8.28,8.40,
"CC(C)[C@@H]1CC[C@@H](C)C[C@@]1(O)C(=O)NCCc1ccccc1OCCO [Example 7, (1S,2S,5R)-1-hydroxy-N-(2-(2-hydroxyethoxy)phenethyl)-2-isopropyl-5-methylcyclohexane-1-carboxamide]",5.21,8.07,8.09,5.55
"CC(C)[C@@H]1CC[C@@H](C)C[C@@]1(O)C(=O)NCCOc1ccccc1 [Example 120, (1S,2S,5R)-1-hydroxy-2-isopropyl-5-methyl-N-(2-phenoxyethyl)cyclohexanecarboxamide]",5.25,7.51,7.86,5.44
"CC(C)[C@@H]1CC[C@@H](C)C[C@@]1(O)C(=O)NCC(=O)c1cccc(F)c1F [Example 142, (1S,2S,5R)-N-[2-(2,3-difluorophenyl)-2-oxo-ethyl]-1-hydroxy-2-isopropyl-5-methyl-cyclohexanecarboxamide]",5.48,7.92,8.40,5.85
"CC(C)[C@@H]1CC[C@@H](C)C[C@@]1(O)C(=O)NCC(O)c1ccccc1O (stereo partly drawn) [Example 35, (1S,2S,5R)-1-hydroxy-N-(2-hydroxy-2-(2-hydroxyphenyl)ethyl)-2-isopropyl-5-methylcyclohexane-1-carboxamide]",5.88,8.52,8.52,6.00
"CC(C)[C@@H]1CC[C@@H](C)C[C@@]1(O)C(=O)NCC(=O)Nc1ccccc1 [Example 129, (1S,2S,5R)-N-(2-anilino-2-oxo-ethyl)-1-hydroxy-2-isopropyl-5-methyl-cyclohexanecarboxamide]",5.90,8.16,8.59,5.52
"CC(C)[C@@H]1CC[C@@H](C)C[C@@]1(O)C(=O)NCC(NC(=O)CN)c1ccccc1 (single isomer, unassigned) [Example 184]",6.25,7.84,7.55,6.22
"CC(C)[C@@H]1CC[C@@H](C)C[C@@]1(O)C(=O)NCCO [Example 110, (1S,2S,5R)-1-hydroxy-N-(2-hydroxyethyl)-2-isopropyl-5-methylcyclohexane-1-carboxamide]",< 5.00,5.79,6.19,
"CC(C)[C@@H]1CC[C@@H](C)C[C@@]1(O)C(=O)N[C@H](CCO)c1ccccc1 [Example 86, (1S,2S,5R)-1-hydroxy-N—((R)-3-hydroxy-1-phenylpropyl)-2-isopropyl-5-methylcyclohexane-1-carboxamide]",< 5.00,6.26,6.13,
"COC(=O)CO[C@H](CNC(=O)[C@]1(O)C[C@H](C)CC[C@H]1C(C)C)c1ccccc1 [Example 57, methyl 2-((S)-2-((1S,2S,5R)-1-hydroxy-2-isopropyl-5-methylcyclohexane-1-carboxamido)-1-phenylethoxy)acetate]",< 5.00,6.60,6.66,
"COC(=O)c1ccccc1CCNC(=O)[C@]1(O)C[C@H](C)CC[C@H]1C(C)C [Example 106, methyl 2-(2-((1S,2S,5R)-1-hydroxy-2-isopropyl-5-methylcyclohexane-1-carboxamido)ethyl)benzoate]",< 5.00,7.53,7.63,
"CC(C)[C@@H]1CC[C@@H](C)C[C@@]1(O)C(=O)NCC(=O)NCc1ccccc1 [Example 30, (1S,2S,5R)—N-(2-(benzylamino)-2-oxoethyl)-1-hydroxy-2-isopropyl-5-methylcyclohexane-1-carboxamide]",< 5.00,5.49,6.12,
"COc1ccc(NC(=O)[C@]2(O)C[C@H](C)CC[C@H]2C(C)C)cc1 [Example 174, (1S,2S,5R)-1-hydroxy-N-(4-methoxyphenyl)-5-methyl-2-propan-2-ylcyclohexane-1-carboxamide]",5.66,6.93,7.48,

# Source: patent publication US20240124408A1 (Sanofi, priority 2020, published 2024)
